Measured values from ChEMBL document CHEMBL4321837, “Discovery of Potent and Orally Effective Dual Janus Kinase 2/FLT3 Inhibitors for the Treatment of Acute Myelogenous Leukemia and Myeloproliferative Neoplasms” (J Med Chem, 2019).
The source made the active and inactive calls. The calls are words filed in the database; no cut-off is given here.

What was measured:
[1] = Anti-myelofibrosis activity against mouse BAF3(transformed) cells harboring with JAK2 V617F mutant allografted in NOD/SCID mouse assessed as reduction in liver weight at 60 mg/kg, po qd for 20 days measured on day 25 relative to control; assay type: functional
[2] = target: Receptor-type tyrosine-protein kinase FLT3 (Homo sapiens, UniProt P36888, D835Y); experiment: Inhibition of recombinant human FLT3 D835Y mutant (564 to end residues) using EAIYAAPFAKKK as substrate incubated for 40 mins in presence of [gamma33P]-ATP by scintillation counting based radiometry assay
[3] = Cmax in Sprague-Dawley rat at 5 mg/kg, po measured up to 24 hrs by LC/MS/MS analysis; assay type: ADME, organism-based; design: dose 5 mg/kg, route oral; conditions: in vivo, 24 h
CDK4/Cyclin D3 = CDK4/Cyclin D3 (Homo sapiens, UniProt P11802); experiment: Inhibition of recombinant full length human CDK4/CyclinD3 using Rb fragment as substrate incubated for 30 mins in presence of [gamma33P]-ATP by scintillation counting based radiometry assay; assay type: protein-complex assay
HUVEC = experiment: Cytotoxicity against HUVEC assessed as cell viability after 72 hrs by MTT assay; assay type: cell-based; conditions: human
MDA-MB-453 = experiment: Antiproliferative activity against human MDA-MB-453 cells assessed as reduction in cell growth after 72 hrs by MTT assay; assay type: functional, cell-based
JAK3/JAK1 = JAK3/JAK1 (Homo sapiens, UniProt P23458+P52333); experiment: Inhibition of JAK1/JAK3 in human THP-1 cells assessed as reduction in IL-4-induced STAT6 phosphorylation by flow cytometry; assay type: cell-based
Cytochrome P450 2E1 = Cytochrome P450 2E1 (Homo sapiens, UniProt P05181); experiment: Inhibition of CYP2E1 (unknown origin); assay type: ADME
[4] = Half life in rat liver microsomes; assay type: ADME, Microsome
[5] = Half life in mouse liver microsomes; assay type: ADME, Microsome
[6] = Half life in monkey liver microsomes; assay type: ADME, Macaca mulatta, Microsome; conditions: rhesus monkey
[7] = Intrinsic clearance in human liver microsomes; assay type: ADME, Microsome
[8] = Intrinsic clearance in mouse liver microsomes; assay type: ADME, Microsome
MV4-11 [9] = experiment: Inhibition of JAK2/FLT3 ITD mutant in human MV4-11 cells assessed as reduction in FLT3 phosphorylation after 2 hrs by Western blot analysis; assay type: cell-based
Homo sapiens = organism: Homo sapiens; experiment: Inhibition of JAK2 V617F mutant/FLT3 in human SET2 cells assessed as reduction in FLT3 phosphorylation after 2 hrs by Western blot analysis; assay type: cell-based
MV4-11 [10] = experiment: Induction of cell cycle arrest in human MV4-11 cells assessed as accumulation at G2/M phase at 0.005 uM after 24 hrs by propidium iodide staining based flow cytometry analysis (reference value: 15.4%); assay type: functional
MV4-11 [11] = experiment: Induction of cell cycle arrest in human MV4-11 cells assessed as accumulation at S phase at 0.01 uM after 24 hrs by propidium iodide staining based flow cytometry analysis (reference value: 30.11%); assay type: functional
MV4-11 [12] = experiment: Induction of cell cycle arrest in human MV4-11 cells assessed as accumulation at G2/M phase at 0.01 uM after 24 hrs by propidium iodide staining based flow cytometry analysis (reference value: 15.4%); assay type: functional
MV4-11 [13] = experiment: Induction of cell cycle arrest in human MV4-11 cells assessed as accumulation at S phase at 0.05 uM after 24 hrs by propidium iodide staining based flow cytometry analysis (reference value: 30.11%); assay type: functional
MV4-11 [14] = experiment: Induction of cell cycle arrest in human MV4-11 cells assessed as accumulation at G2/M phase at 0.1 uM after 24 hrs by propidium iodide staining based flow cytometry analysis (reference value: 15.4%); assay type: functional
MV4-11 [15] = experiment: Induction of apoptosis in human MV4-11 cells assessed as viable cells at 0.4 uM after 24 hrs by Annexin V FITC/PI staining based flow cytometry analysis (reference value: 96.3%); assay type: functional; conditions: MV4-11, 24 h, read-out: Activity
MV4-11 [16] = experiment: Induction of apoptosis in human MV4-11 cells assessed as necrotic cells at 0.4 uM after 24 hrs by Annexin V FITC/PI staining based flow cytometry analysis (reference value: 0.18%); assay type: functional
MV4-11 [17] = experiment: Induction of apoptosis in human MV4-11 cells assessed as viable cells at 0.8 uM after 24 hrs by Annexin V FITC/PI staining based flow cytometry analysis (reference value: 96.3%); assay type: functional; conditions: MV4-11, 24 h, read-out: Activity
MV4-11 [18] = experiment: Induction of apoptosis in human MV4-11 cells assessed as early apoptotic cells at 0.8 uM after 24 hrs by Annexin V FITC/PI staining based flow cytometry analysis (reference value: 2.14%); assay type: functional
MV4-11 [19] = experiment: Induction of apoptosis in human MV4-11 cells assessed as late apoptotic cells at 0.8 uM after 24 hrs by Annexin V FITC/PI staining based flow cytometry analysis (reference value: 1.38%); assay type: functional
MV4-11 [20] = experiment: Induction of apoptosis in human MV4-11 cells assessed as necrotic cells at 0.8 uM after 24 hrs by Annexin V FITC/PI staining based flow cytometry analysis (reference value: 0.18%); assay type: functional
MV4-11 [21] = experiment: Induction of apoptosis in human MV4-11 cells assessed as viable cells at 1.6 uM after 24 hrs by Annexin V FITC/PI staining based flow cytometry analysis (reference value: 96.3%); assay type: functional; conditions: MV4-11, 24 h, read-out: Activity
MV4-11 [22] = experiment: Induction of apoptosis in human MV4-11 cells assessed as early apoptotic cells at 1.6 uM after 24 hrs by Annexin V FITC/PI staining based flow cytometry analysis (reference value: 2.14%); assay type: functional
MV4-11 [23] = experiment: Induction of apoptosis in human MV4-11 cells assessed as late apoptotic cells at 1.6 uM after 24 hrs by Annexin V FITC/PI staining based flow cytometry analysis (reference value: 1.38%); assay type: functional
MV4-11 [24] = experiment: Induction of apoptosis in human MV4-11 cells assessed as necrotic cells at 1.6 uM after 24 hrs by Annexin V FITC/PI staining based flow cytometry analysis (reference value: 0.18%); assay type: functional
MV4-11 [25] = experiment: Induction of apoptosis in human MV4-11 cells after 24 hrs by Annexin V FITC/PI staining based flow cytometry analysis; assay type: functional, cell-based
SET-2 [26] = experiment: Antitumor activity against human SET2 cells overexpressing JAK2 V617F mutant xenografted in NOD/SCID mouse assessed as tumor growth inhibition at 30 mg/kg, po qd for 18 days measured every 2 days for 18 days by caliper method relative to control; assay type: functional; conditions: SET-2, po, read-out: TGI
SET-2 [27] = experiment: Antitumor activity against human SET2 cells overexpressing JAK2 V617F mutant xenografted in NOD/SCID mouse assessed as tumor growth inhibition at 60 mg/kg, po qd for 18 days measured every 2 days for 18 days by caliper method relative to control; assay type: functional; conditions: SET-2, po, read-out: TGI
[28] = Toxicity in NOD/SCID mouse xenografted with FLT3-ITD-positive human MV4-11 cells assessed as animal survival at 30 to 60 mg/kg, po qd for 14 days; assay type: organism-based; conditions: in vivo
[29] = Toxicity in NOD/SCID mouse xenografted with FLT3-ITD-positive human MV4-11 cells assessed as body weight at 30 to 60 mg/kg, po qd for 14 days; assay type: organism-based; conditions: in vivo, 336 h
[30] = Toxicity in NOD/SCID mouse xenografted with human SET2 cells overexpressing JAK2 V617F mutant assessed as body weight at 30 to 60 mg/kg, po qd for 18 days; assay type: organism-based; conditions: in vivo, 432 h

Cytochrome P450 2E1, sequence (P05181 whole entry): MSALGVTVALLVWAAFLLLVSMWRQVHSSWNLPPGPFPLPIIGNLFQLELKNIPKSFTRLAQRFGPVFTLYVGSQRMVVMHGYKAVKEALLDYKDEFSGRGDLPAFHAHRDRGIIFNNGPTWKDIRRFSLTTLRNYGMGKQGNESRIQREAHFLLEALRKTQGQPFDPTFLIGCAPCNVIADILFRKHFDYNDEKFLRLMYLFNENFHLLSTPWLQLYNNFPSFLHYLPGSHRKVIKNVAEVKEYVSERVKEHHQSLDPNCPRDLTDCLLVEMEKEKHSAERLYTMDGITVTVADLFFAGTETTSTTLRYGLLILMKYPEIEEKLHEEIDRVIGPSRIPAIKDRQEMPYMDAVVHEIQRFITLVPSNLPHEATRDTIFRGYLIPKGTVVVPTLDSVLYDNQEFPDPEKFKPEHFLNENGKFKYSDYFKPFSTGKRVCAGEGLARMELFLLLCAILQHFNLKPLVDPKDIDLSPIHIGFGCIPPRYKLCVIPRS
JAK3/JAK1, sequence (P52333 whole entry): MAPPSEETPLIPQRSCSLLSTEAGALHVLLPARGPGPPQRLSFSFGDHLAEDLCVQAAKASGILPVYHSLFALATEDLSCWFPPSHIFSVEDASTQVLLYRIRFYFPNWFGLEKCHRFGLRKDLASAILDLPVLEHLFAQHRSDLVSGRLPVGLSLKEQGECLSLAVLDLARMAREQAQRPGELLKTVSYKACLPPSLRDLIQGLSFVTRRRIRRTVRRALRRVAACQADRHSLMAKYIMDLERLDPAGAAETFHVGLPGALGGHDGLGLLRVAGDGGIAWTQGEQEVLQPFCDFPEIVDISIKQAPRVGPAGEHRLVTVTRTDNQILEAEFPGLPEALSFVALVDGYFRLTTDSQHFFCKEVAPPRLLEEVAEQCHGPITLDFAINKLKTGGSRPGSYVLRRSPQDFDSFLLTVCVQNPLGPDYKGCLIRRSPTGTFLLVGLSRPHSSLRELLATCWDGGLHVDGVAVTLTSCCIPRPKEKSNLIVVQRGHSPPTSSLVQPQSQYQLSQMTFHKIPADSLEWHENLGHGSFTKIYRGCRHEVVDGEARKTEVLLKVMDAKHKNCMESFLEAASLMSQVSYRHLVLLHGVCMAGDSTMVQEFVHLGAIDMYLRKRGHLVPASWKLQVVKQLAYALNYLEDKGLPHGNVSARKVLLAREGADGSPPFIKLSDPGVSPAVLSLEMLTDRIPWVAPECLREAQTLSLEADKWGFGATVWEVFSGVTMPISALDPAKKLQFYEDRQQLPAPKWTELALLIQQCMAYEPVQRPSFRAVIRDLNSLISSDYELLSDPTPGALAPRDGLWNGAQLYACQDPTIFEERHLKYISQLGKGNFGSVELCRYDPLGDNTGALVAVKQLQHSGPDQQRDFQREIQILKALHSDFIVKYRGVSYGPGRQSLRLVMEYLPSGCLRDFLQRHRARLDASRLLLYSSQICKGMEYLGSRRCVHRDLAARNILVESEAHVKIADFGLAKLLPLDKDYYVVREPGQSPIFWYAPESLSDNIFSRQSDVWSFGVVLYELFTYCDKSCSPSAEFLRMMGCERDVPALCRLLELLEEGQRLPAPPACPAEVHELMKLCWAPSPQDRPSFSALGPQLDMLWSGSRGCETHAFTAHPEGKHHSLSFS
JAK3/JAK1, sequence (P23458 whole entry): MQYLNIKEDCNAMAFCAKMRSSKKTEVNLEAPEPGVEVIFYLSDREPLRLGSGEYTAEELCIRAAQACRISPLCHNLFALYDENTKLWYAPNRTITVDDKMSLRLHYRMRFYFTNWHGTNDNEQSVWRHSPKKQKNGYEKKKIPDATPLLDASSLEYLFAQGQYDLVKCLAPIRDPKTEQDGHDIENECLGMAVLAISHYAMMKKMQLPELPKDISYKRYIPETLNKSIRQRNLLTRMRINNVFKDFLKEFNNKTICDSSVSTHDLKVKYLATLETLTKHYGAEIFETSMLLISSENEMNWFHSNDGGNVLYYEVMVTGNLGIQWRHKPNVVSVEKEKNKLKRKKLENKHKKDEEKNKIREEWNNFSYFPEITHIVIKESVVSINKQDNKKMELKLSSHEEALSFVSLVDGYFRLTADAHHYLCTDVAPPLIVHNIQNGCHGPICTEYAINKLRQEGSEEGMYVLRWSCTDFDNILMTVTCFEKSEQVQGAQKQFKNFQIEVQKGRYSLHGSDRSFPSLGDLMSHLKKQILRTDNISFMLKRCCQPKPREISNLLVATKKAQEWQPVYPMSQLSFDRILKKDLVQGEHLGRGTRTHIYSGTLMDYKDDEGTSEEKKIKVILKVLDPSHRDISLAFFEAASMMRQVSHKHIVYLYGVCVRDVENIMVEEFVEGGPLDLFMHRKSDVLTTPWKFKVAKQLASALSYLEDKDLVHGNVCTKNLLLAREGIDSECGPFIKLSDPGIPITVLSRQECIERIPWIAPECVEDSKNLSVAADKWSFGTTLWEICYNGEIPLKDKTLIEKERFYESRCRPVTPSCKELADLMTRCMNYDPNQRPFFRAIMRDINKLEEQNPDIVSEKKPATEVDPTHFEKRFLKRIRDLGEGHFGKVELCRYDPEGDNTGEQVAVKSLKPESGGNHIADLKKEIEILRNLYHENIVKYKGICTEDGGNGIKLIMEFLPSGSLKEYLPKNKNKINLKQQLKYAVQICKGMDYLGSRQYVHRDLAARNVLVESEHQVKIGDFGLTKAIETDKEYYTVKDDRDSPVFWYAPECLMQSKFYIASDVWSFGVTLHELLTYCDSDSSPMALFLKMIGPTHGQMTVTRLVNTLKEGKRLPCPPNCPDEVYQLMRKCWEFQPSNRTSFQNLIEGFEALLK
CDK4/Cyclin D3, sequence (P11802 whole entry, the tested form may be a part): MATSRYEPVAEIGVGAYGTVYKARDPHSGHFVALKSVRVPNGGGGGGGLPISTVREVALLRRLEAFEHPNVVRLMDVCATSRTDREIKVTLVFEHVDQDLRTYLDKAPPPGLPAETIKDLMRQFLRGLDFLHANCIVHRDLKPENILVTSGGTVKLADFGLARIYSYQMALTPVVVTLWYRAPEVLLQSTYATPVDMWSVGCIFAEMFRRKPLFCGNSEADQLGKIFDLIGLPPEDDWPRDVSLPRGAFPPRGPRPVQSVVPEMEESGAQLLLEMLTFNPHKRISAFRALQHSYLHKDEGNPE
CDK4/Cyclin D3, sequence (P30281 whole entry, further chain, the tested form may be a part): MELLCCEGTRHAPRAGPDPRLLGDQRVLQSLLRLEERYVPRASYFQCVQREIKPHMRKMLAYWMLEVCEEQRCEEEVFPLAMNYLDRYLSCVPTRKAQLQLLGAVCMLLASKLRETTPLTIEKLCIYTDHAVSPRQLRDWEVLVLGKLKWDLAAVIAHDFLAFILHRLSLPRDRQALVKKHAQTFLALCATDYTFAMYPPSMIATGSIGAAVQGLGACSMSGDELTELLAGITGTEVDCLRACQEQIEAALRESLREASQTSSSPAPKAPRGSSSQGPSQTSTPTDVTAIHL

Cc1cnc(Nc2ccc(N3CCC(N(C)CCO)CC3)c(F)c2)nc1-c1cnn(C(C)C)c1
inhibition in vivo at 60 mg/kg [1]: 94.3% | IC50 [2]: 4 nM | Cmax [3]: 102 ng/mL | IC50 (CDK4/Cyclin D3): 18 nM | Activity (HUVEC): Non-Toxic | Activity (MDA-MB-453): Active | IC50 (JAK3/JAK1): 578 nM | IC50 (Cytochrome P450 2E1): > 100000 nM | half-life [4]: 12.8 h | half-life [5]: 6.42 h | half-life [6]: 23.1 h | CLH [7]: 2.4 µL/min/mg | CLH [8]: 1.8 µL/min/mg | inhibition (MV4-11 [9]): Dose-dependent effect | inhibition (Homo sapiens): Dose-dependent effect | Activity (MV4-11 [10]): 15.4% | Activity (MV4-11 [11]): 29.65% | Activity (MV4-11 [12]): 11.8% | Activity (MV4-11 [13]): 12.84% | Activity (MV4-11 [14]): 5.04% | viability at 0.4 µM (MV4-11 [15]): 51.2% | Activity (MV4-11 [16]): 1.04% | viability at 0.8 µM (MV4-11 [17]): 46.4% | Activity (MV4-11 [18]): 23.4% | Activity (MV4-11 [19]): 29.3% | Activity (MV4-11 [20]): 0.93% | viability at 1.6 µM (MV4-11 [21]): 24.9% | Activity (MV4-11 [22]): 33.6% | Activity (MV4-11 [23]): 40.9% | Activity (MV4-11 [24]): 0.68% | Activity (MV4-11 [25]): Dose-dependent effect | inhibition in vivo at 30 mg/kg (SET-2 [26]): 66% | inhibition in vivo at 60 mg/kg (SET-2 [27]): 85% | survival at 336 h [28]: 100% | Activity [29]: Non-Toxic | Activity [30]: Non-Toxic
